Test results as given in patent US8859628B2, “Method for preventing, treating and diagnosing disorders of protein aggregation” (priority 2003, dated 2014).
Entries after “also recorded” stand apart in the source; their conditions may differ.

How the values were obtained:
Format in all cases: in vivo, mouse
[1] = tested on: TgCRND8 mice; experiment: Cerebral Aβ content (Aβ40 and Aβ42 kits on hemi-brain homogenates); parameters: Total Aβ: unit not given here
Protocol: (§1) Plasma and Cerebral Aβ Content—Hemi-brain samples were homogenized in a buffered sucrose solution, followed by either 0.4% diethylamine/100 mM NaCl for soluble Aβ levels or cold formic acid for the isolation of total Aβ. After neutralization the samples were diluted and analyzed for Aβ40 and Aβ42 using commercially available kits (BIOSOURCE International). Each hemisphere was analyzed in triplicate with the mean±SEM reported. Western blot analyses were performed on all fractions using urea gels for Aβ species analyses. Aβ was detected using 6E10 (BIOSOURCE International) and Enhanced Chemiluminenscence (Amersham).
as §1, with “reported.” for “reported. Western blot analyses were performed on all fractions using urea gels for Aβ species analyses. Aβ was detected using 6E10 (BIOSOURCE International) and Enhanced Chemiluminenscence (Amersham).”

[2] = tested on: TgCRND8 mice; experiment: Morris Water Maze, spatial reference memory version, three-day trial paradigm (treatment/reversal study); settings: three-day paradigm
Protocol: A cohort entered the study at 5 months of age and outcomes were analyzed at 6-months of age. The body weight, coat characteristics and in cage behavior was monitored. All experiments were performed according to the Canadian Council on Animal Care guidelines.
Behavioral Test—Reversal Study—Mice entered the Morris water maze test with a hidden platform on day one without pretraining. Mice were tested for 3 days with six trials per day. On the fourth day, the platform was removed from the pool and each mouse received one 30-s swim probe trial. On the last day the animals underwent a cue test in order to evaluate swimming ability, eye sight and general cognition. The cue test is composed at the platform being placed in a different quadrant than that used for testing and is tagged with a flag. Animals are allowed 60 s to find the platform. […] Behavioural data was analysed using a mixed model of factorial analysis of variance (ANOVA) with drug or genotype and training sessions as repeated measure factors.
The cognitive function of TgCRND8 mice was assessed using the spatial reference memory version of the Morris Water Maze using a three day trial paradigm (FIGS. 4-8).
Behavioural data was analysed using a mixed model of factorial analysis of variance (ANOVA) with drug and genotype as between subject variables and training sessions as within subject variable.
In these experiments, the dosage and oral administration of compounds, and the behavioral and neurochemical assays were the same as those employed in the above treatment experiments.

[3] = tested on: TgPS1xAPP mice; experiment: Plaque burden in double transgenic PS1 x APP model (prophylactic trial); settings: 2 months of age
Excerpt: Tg PS1 x APP mice are an enhanced model of Alzheimer's disease which express a mutant human PS1 transgene encoding two familial mutations (M146L and L286V) in conjunction with the human APP transgene encoding the Indiana and Swedish familial mutations. These animals develop robust expression of cerebral Aβ levels and amyloid deposition by 30-45 days of age.

[4] = 1 month treatment from 5 months of age
[5] = prevention, 6 months of age, vs untreated TgCRND8
[6] = prevention, four months of age, vs untreated TgCRND8

O[C@H]1[C@H](O)[C@@H](O)[C@H](O)[C@@H](O)[C@@H]1O [Scyllo-Inositol, scyllo-inositol]
Aβ load vs untreated [1, 4]: significantly decreased the plaque burden and the Aβ load | Total Aβ ([1]; 1 month treatment, 30 mg/mouse/day from 5 months, analyzed at 6 months of age): 15194 ± 579 | Total Aβ ([1]; 4 month prevention, 30 mg/mouse/day from 6 weeks of age): 5089 ± 173 | Total Aβ ([1]; 6 month prevention, 30 mg/mouse/day from 6 weeks of age): 15621 ± 151 | reduction in Aβ40 levels [1, 5]: 32% | reduction in Aβ42 [1, 5]: 20% | decrease of total brain Aβ40 [1, 6]: 62% | decrease of total brain Aβ42 [1, 6]: 22% | cognitive function, treated TgCRND8 mice vs non-Tg littermates (words) [2, 4]: indistinguishable from non-Tg littermates on all days; also recorded: comparable to scyllo-inositol treated non-Tg littermates | cognitive function, treated TgCRND8 mice vs treated non-Tg littermates ([2]; two months of treatment from 5 months of age): indistinguishable from scyllo-inositol treated non-Tg littermates; also recorded: remained indistinguishable from non-Tg littermates | amyloid/plaque burden vs untreated (words) ([3]; listed as Scyllo-inositol): significantly decreased amyloid burden | amyloid/plaque burden vs untreated (words) ([3]; listed as scyllo-inositol): significantly reduced | % brain area covered in plaques ([3]; treated from weaning): 0.065±0.016% | Plaque Count ([3]; treated from weaning): 1514±510 | mean plaque size ([3]; treated from weaning): 149±5 μm^2
